For data set [1] the following is noted: primer extension; reported in the literature; read-out: IC50 in in vitro Assays; cited from earlier work.
Another data set has as its target protease (Hepatitis C virus genotype 1a, UniProt P27958). The note with it: protease assay; reported in the literature; read-out: IC50 in in vitro Assays; cited from earlier work.
The test system of data set [2] is NS5A-augmented IRES-mediated translation. Kind of data set: Bicistronic HCV IRES reporter assay (Firefly/Renilla luciferase). The class given is cell-based, Hepatitis C virus. The note with it: for effect of peptide treatment on NS5A-augmented IRES-mediated translation: cells treated with peptide and transfected with reporter construct and NS5A or GFP. An excerpt: FIG. 5A: Schematic of the bicistronic reporter construct used to measure IRESmediated translation. Firefly luciferase (FLuc) and Renilla luciferase (RLuc) are driven by HCV IRES and a 5′ cap, respectively. Each reporter has a stop codon to allow independent expression. Firefly to Renilla ratios are used to follow changes in levels of IRES-mediated translation. For all experiments, the IRES reporter, either NS5A or GFP, and a peptide construct (if indicated) were transfected into cells.
293T cells were transfected with HCV IRES reporter plasmid; either pMSCV5AFLAG or pMSCVGFP; and pCCL-CMV-IRES-EGFP plasmid expressing one of the following peptides: C34, NS5A domain II peptide, NS5A domain III peptide, NS3 peptide, or one of the C34 mutagenesis peptides. All transfections were done using Fugene 6 (Roche, 11814443001). 48 hours post transfection, Renilla and Firefly luciferase activity was determined using Dual Luciferase Assay System (Promega, E1910).
After identifying the C-terminal region of NS5A as the HSP70 binding site in vitro, we sought to determine whether this region has any functional significance. NS5A has been reported to increase IRES-mediated translation in a cell culture-based bicistronic reporter system (He et al. (2003) J. General Virol., 84: 535-543) (FIG. 5A). This reporter system consists of the Firefly luciferase open reading frame (ORF) driven by HCV IRES and Renilla luciferase ORF under the control of a 5′ cap (FIG. 5A). The ratio of Firefly to Renilla luciferase activity can be used to measure the levels of IRES-mediated translation. The C-terminal 34 amino acid peptide corresponding to amino acids 165-198 of NSSA domain I (hereafter referred to as C34) was tested for its effect on altering IRES-mediated translation. […]
We also assessed the impact of the HCV4 peptide on NS5A-augmented IRES-mediated translation. […]
In general terms: In a reporter assay the amount or activity of a reporter protein is the signal.

In data set [3] the test system is HCV Renilla reporter virus. As for the experimental part:
(§1) Huh-7.5 cells were transfected with the indicated peptide construct and 48 hours later infected with the reporter virus for three hours. Cells were harvested 24 hours post infection, and Renilla activity was measured. All Renilla values were normalized to GFP transfection. […] Huh-7.5 cells were treated with the indicated concentrations of HCV4 or the arginine tag control peptide and immediately infected with the Renilla reporter virus for three hours. Cells were assayed 24 hours post infection for Renilla activity. ‘Percent protection’ refers to the percentage of decrease in Renilla levels compared with no peptide treatment.
pNRLFC was in vitro transcribed, and the purified RNA was electroporated into Huh-7.5 cells to generate infectious viral supernatant as previously described (Arumugaswami et al. (2008) PLoS Pathogens, 4: e1000182). Viral assays were done using the HCV reporter virus as described previously (Gonzalez et al. (2009) Hepatology50: 1756-1764).
(§2) Two cysteine residues were added to each end to allow for disulfide bond formation and to achieve a conformation similar to the C34 hairpin. Also an arginine tag was added to the N-terminal cysteine to allow for efficient uptake by cells without any transfection reagent. Huh-7.5 cells were treated with concentrations of HCV4 peptide ranging from 100 μM to 10 pM in the HCVcc system and were immediately infected with the HCV Renilla reporter virus.

Another data set deals with Huh-7.5 cells. As for the experimental part:
as §1
Cell viability was determined using MTT Cell Proliferation assay (ATCC, 30-1010K).
as §2

The test system of another data set is replicon. To be noted: reported in the literature, read-out: IC50 in Cell Culture; cited from earlier work.
The next data set deals with polymerase (Hepatitis C virus genotype 1a, UniProt P27958). To be noted: polymerase assay; reported in the literature; read-out: IC50 in in vitro Assays; cited from earlier work.
Sequence of polymerase (P27958 2421-3011): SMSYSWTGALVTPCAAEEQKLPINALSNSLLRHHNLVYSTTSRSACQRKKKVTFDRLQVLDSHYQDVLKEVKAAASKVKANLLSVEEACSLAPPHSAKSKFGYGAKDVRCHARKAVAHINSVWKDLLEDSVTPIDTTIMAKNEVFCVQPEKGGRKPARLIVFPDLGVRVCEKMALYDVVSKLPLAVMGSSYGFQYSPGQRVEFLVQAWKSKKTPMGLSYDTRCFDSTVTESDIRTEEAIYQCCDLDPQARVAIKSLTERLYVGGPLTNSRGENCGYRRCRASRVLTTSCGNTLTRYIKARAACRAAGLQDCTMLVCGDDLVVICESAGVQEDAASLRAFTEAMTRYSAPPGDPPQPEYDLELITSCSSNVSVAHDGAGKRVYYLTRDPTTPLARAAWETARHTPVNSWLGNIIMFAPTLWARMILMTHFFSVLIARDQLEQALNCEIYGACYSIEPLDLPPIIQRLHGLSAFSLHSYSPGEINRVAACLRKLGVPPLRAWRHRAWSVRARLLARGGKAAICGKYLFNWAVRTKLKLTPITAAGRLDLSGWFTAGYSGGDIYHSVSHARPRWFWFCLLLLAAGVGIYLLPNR
The test system of another data set is HCV. The note with it: previously shown (Gonzalez et al. 2009); cited from earlier work.
Data set [4] has as its system NS5A-augmented IRES-mediated translation. To be noted: previously shown (Gonzalez et al. 2009); cited from earlier work.

The values below come from patent US20140294942A1, “ANTIVIRAL PEPTIDES EFFECTIVE AGAINST HEPATITIS C VIRUS” (THE REGENTS OF THE UNIVERSITY OF CALIFORNIA, priority 2011, published 2014).

Entries after “also recorded” stand apart in the source; their conditions may differ. Where two headings read alike, the source gives them in different places. Bridge positions count the residues as written; N and C are the ends. Square brackets hold non-standard residues; d marks the D form. Peptide text beside a SMILES is read from it. Cha = N[C@@H](CC1CCCCC1)C(=O)O; Ahx = NCCCCCC(=O)O

Sequence of protease (P27958 1027-1657 limits assumed): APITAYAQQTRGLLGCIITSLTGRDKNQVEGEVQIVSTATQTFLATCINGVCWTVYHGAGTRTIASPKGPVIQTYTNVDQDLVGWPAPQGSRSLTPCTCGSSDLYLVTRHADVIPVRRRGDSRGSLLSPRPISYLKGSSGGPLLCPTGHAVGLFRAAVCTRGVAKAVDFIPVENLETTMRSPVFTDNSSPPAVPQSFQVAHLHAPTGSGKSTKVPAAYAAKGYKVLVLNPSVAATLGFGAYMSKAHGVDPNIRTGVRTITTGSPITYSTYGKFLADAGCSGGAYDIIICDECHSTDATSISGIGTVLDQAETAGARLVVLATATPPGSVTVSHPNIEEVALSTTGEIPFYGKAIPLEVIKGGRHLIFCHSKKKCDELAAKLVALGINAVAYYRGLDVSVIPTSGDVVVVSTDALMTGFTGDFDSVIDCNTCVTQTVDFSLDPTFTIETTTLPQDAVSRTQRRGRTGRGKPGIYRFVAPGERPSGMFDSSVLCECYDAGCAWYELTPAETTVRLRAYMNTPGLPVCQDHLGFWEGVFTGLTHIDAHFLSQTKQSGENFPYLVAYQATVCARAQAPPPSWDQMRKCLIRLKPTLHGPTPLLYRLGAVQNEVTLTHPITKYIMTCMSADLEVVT
Sequence of protease (P27958 1658-1711 partner limits assumed): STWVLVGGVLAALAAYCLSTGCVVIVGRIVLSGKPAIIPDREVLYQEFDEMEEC

Broadly, the IC50 is the concentration that inhibits the measured activity by half. As for `CCc1cc(CC[C@]2(C3CCCC3)CC(O)=C(Cc3nc4nc(C)cc(C)n4n3)C(=O)O2)cc(CC)n1` [Filibuvir], the IC50 in data set [1] is 50 nM.
In the case of `COc1ccc2c(O[C@@H]3C[C@H]4C(=O)N[C@]5(C(=O)NS(=O)(=O)C6CC6)C[C@H]5/C=C\CCCCN(C)C(=O)[C@@H]4C3)cc(-c3nc(C(C)C)cs3)nc2c1C` [TMC435], the IC50 at protease is 13 nM.
Turning to `CC(C)[C@@H]1NC(=O)[C@H](CCCNC(=N)N)NC(=O)[C@H](Cc2ccccc2)NC(=O)[C@H](CO)NC(=O)[C@@H](NC(=O)CCCCCNC(=O)CCCCCNC(=O)[C@H](CCCNC(=N)N)NC(=O)CCCCCNC(=O)[C@H](CCCNC(=N)N)NC(=O)CCCCCNC(=O)[C@H](CCCNC(=N)N)NC(=O)CCCCCNC(=O)[C@H](CCCNC(=N)N)NC(=O)CCCCCNC(=O)[C@H](CCCNC(=N)N)NC(=O)CCCCCNC(=O)[C@H](CCCNC(=N)N)NC(=O)CCCCCNC(=O)[C@@H](N)CCCNC(=N)N)CSSC[C@@H](C(N)=O)NC(=O)[C@@H]2CCCN2C(=O)[C@H](Cc2ccc(O)cc2)NC(=O)[C@H](CCC(=O)O)NC(=O)[C@H](Cc2c[nH]cn2)NC(=O)[C@H](CC2CCCCC2)NC(=O)[C@H]2CCCN2C1=O` [HCV4, Arg-(Ahx-Arg)6-Ahx-Ahx-Cys-Ser-Phe-Arg-Val-(D)Pro-Cha-His-Glu-Tyr-Pro-Cys] (H-R[Ahx]R[Ahx]R[Ahx]R[Ahx]R[Ahx]R[Ahx]R[Ahx][Ahx]CSFRV[dP][Cha]HEYPC-NH2; disulfide 16-27; N-terminus assumed), the “effect of peptide treatment on NS5A-augmented IRES-mediated translation” value in [2] was “blocks”. In addition, the IC50 in data set [3] (read-out: IC50 in Cell Culture, reporter virus) was 0.542 nM; in data set [3] (read-out: estimated IC50, intracellular viral protein production, Huh-7.5 cells treated with peptide 100 μM to 10 pM, immediately infected with HCV Renilla reporter virus, Renilla activity 24 hours post infection), about 0.5 nM. Moreover, the MTT toxicity result with Huh-7.5 cells (10 μM) is listed as “slight toxicity”; in the data set on Huh-7.5 cells (100 μM) it was “toxicity”; in the data set on Huh-7.5 cells (any concentration lower than 10 μM), “no cytotoxicity”.
Consider “LREEVSFRVGLHEYPVGSQLPCEP EPDVAVLTSM [C34]”, for which the “effect of expressed peptide on NS5A-augmented IRES-mediated translation” value in data set [2] (293T cells transfected with IRES reporter, NS5A or GFP, and peptide construct, 48 hours post transfection) is “block; also recorded: suppresses”. Also, the “cell viability by MTT on peptide expression” value in the data set with Huh-7.5 cells (expressed from construct, data not shown) was “no effect”.
With `C=C[C@@H]1C[C@]1(NC(=O)[C@@H]1C[C@@H](Oc2cc(-c3csc(NC(=O)C(C)C)n3)nc3c(Br)c(OC)ccc23)CN1C(=O)[C@@H](NC(=O)OC1CCCC1)C(C)(C)C)C(=O)O` [Bl 201335], in the data set on replicon, the IC50 was 3.1 to 50 nM.
For the compound `CC(C)(C)OC(=O)N[C@H]1CCCCC/C=C\[C@@H]2C[C@@]2(C(=O)NS(=O)(=O)C2CC2)NC(=O)[C@@H]2C[C@@H](OC(=O)N3Cc4cccc(F)c4C3)CN2C1=O` [ITMN-191, Da noprevir], in the data set on replicon, the IC50 was 1.8 nM.
Consider `CC[C@@H]1C[C@]1(NC(=O)[C@@H]1C[C@@H]2CN1C(=O)[C@H](C(C)(C)C)NC(=O)OCC(C)(C)CCCCc1cccc3c1CN(C3)C(=O)O2)C(=O)NS(=O)(=O)C1CC1` [MK-7009, Vaniprevir], for which, in the data set on replicon, the IC50 is 5 to 15 nM.
As for “R-(Ahx-R)6—CONH2 [arginine tag control peptide, reference compound]”, the “effect of peptide treatment on NS5A-augmented IRES-mediated translation” value in data set [2] is reported as “fail to produce similar results”. Besides, the “effect on intracellular viral protein production” value in [3] (peptide added to Huh-7.5 cells without transfection reagent, immediately infected with Renilla reporter virus, assayed 24 hours post infection) is “did not show any effect”.
Regarding `Fc1ccccc1-c1nc2ccn(Cc3ccc(-c4ccc(C(F)(F)F)cc4C(F)(F)F)nn3)cc-2n1` [GS-9190, Tegobuvir], the IC50 on polymerase is over 71000 nM.
With `O=c1c(O)c(-c2ccc(O)c(O)c2)oc2cc(O)cc(O)c12` [Quercetin], the “effect on virus production” value in the data set with HCV is recorded as “blocked”. The “effect on NS5A-augmented IRES-mediated translation” value in [4] is recorded as “blocked”.
For the compound `CC(C)C(=O)OC[C@H]1O[C@@H](n2ccc(N)nc2=O)[C@](C)(F)[C@@H]1OC(=O)C(C)C` [R7128 (PSI-6130)], in the data set on replicon, the IC50 is 600 nM.
Consider `C/C=C/C[C@@H](C)[C@@H](O)[C@H]1C(=O)N[C@@H](CC)C(=O)N(C)[C@H](SCCN(C)C)C(=O)N(C)[C@@H](CC(C)(C)O)C(=O)N[C@@H](C(C)C)C(=O)N(C)[C@@H](CC(C)C)C(=O)N[C@@H](C)C(=O)N[C@H](C)C(=O)N(C)[C@@H](CC(C)C)C(=O)N(C)[C@@H](CC(C)C)C(=O)N(C)[C@@H](C(C)C)C(=O)N1C` [SCY-635], for which the IC50 with replicon is 140 nM.
